In patent US20130190289A1, “COMPOUNDS AND METHODS FOR THE TREATMENT OR PREVENTION OF FLAVIVIRUS INFECTIONS” (priority 2010, published 2013) one finds CC50 and IC50 data, which are given here for 23 molecules.

Some results are limits rather than exact numbers.

Data set [1] can be described thus: [3H]Thymidine incorporation assay (cell toxicity). Particulars: human.
Data set [2] has as its system HCV replicon (genotype 1b) in Huh7 cell line ET. As to the kind of experiment: microbe, parasite or virus in culture. Format: cell-based, HCV genotype 1b. Particulars: Hepatitis C virus, Huh-7, read-out: HCV-Replicon-(Luci-ET) 1b_IC50.

The term CC50 denotes the concentration at which the toxic effect on the cells reaches its halfway point. Higher therefore signals better tolerance by the cells. The molecule `CC(C)NC(=O)CN(c1cc(C#CC(C)(C)C)sc1C(=O)O)C(=O)[C@H]1CC[C@H](C)CC1` [Compound 73, 5-(3,3-dimethylbut-1-ynyl)-3-[[2-(isopropylamino)-2-oxo-ethyl]-(trans-4-methylcyclohexanecarbonyl)amino]thiophene-2-carboxylic acid] showed a CC50 at 72 h in data set [1] greater than 100 µM. Further, in data set [2], the IC50 is less than 0.1 µM.

As to `CO[C@H](C)[C@H](C(=O)N1CCOCC1)N(c1cc(C#CC(C)(C)C)sc1C(=O)O)C(=O)[C@H]1CC[C@H](C)CC1` [Compound 74, 5-(3,3-dimethylbut-1-ynyl)-3-[[(1R,2R)-2-methoxy-1-(morpholine-4-carbonyl)propyl]-(trans-4-methylcyclohexanecarbonyl)amino]thiophene-2-carboxylic acid], the CC50 at 72 h in data set [1] was greater than 100 µM. Also, the IC50 in data set [2] is less than 0.1 µM.

For the molecule `CC[C@@H](C(=O)N(C)C1CCN(C)CC1)N(c1cc(C#CC(C)(C)C)sc1C(=O)O)C(=O)[C@H]1CC[C@H](C)CC1` [Compound 76, 5-(3,3-Dimethylbut-1-ynyl)-3-[(trans-4-methylcyclohexanecarbonyl)-[(1S)-1-[methyl-(1-methyl-4-piperidyl)carbamoyl]propyl]amino]thiophene-2-carboxylic acid], the CC50 at 72 h in data set [1] was in the range of 10 to 100 µM. For the same molecule, the IC50 in data set [2] was less than 0.1 µM.

For the molecule `CC[C@@H](C(=O)N(C)CCO)N(c1cc(C#CC(C)(C)C)sc1C(=O)O)C(=O)[C@H]1CC[C@H](C)CC1` [Compound 77, 5-(3,3-Dimethylbut-1-ynyl)-3-[[(1S)-1-[2-hydroxyethyl(methyl)carbamoyl]propyl]-(trans-4-methylcyclohexanecarbonyl)amino]thiophene-2-carboxylic acid], the cytotoxic concentration (CC50) at 72 h in data set [1] was greater than 100 µM. Also, the IC50 in data set [2] is less than 0.1 µM.

`CC[C@@H](C(=O)N(C)CC1CCOC1)N(c1cc(C#CC(C)(C)C)sc1C(=O)O)C(=O)[C@H]1CC[C@H](C)CC1` (stereo partly drawn) [Compound 80, 5-(3,3-Dimethylbut-1-ynyl)-3-[(trans-4-methylcyclohexanecarbonyl)-[(1S)-1-[methyl(tetrahydrofuran-3-ylmethyl)carbamoyl]propyl]amino]thiophene-2-carboxylic acid]: in data set [1], the CC50 at 72 h was greater than 100 µM. Further, the IC50 in data set [2] is less than 0.1 µM.

`CC[C@@H](C(=O)N(C)C1CCOCC1)N(c1cc(C#CC(C)(C)C)sc1C(=O)O)C(=O)[C@H]1CC[C@H](C)CC1` [Compound 81, 5-(3,3-Dimethylbut-1-ynyl)-3-[(trans-4-methylcyclohexanecarbonyl)-[(1S)-1-[methyl(tetrahydropyran-4-yl)carbamoyl]propyl]amino]thiophene-2-carboxylic acid] yielded a CC50 at 72 h in data set [1] of 10 to 100 µM. Further, the IC50 in data set [2] was less than 0.1 µM.

Molecule `CC[C@@H](C(=O)N1CCCOCC1)N(c1cc(C#CC(C)(C)C)sc1C(=O)O)C(=O)[C@H]1CC[C@H](C)CC1` [Compound 84, 5-(3,3-Dimethylbut-1-ynyl)-3-[(trans-4-methylcyclohexanecarbonyl)-[(1S)-1-(1,4-oxazepane-4-carbonyl)propyl]amino]thiophene-2-carboxylic acid] returned a cytotoxic concentration (CC50) at 72 h in data set [1] of 10 to 100 µM. For the same molecule, the IC50 in data set [2] was less than 0.1 µM.

On to `CC(C)[C@@H](C(=O)N1CCOCC1)N(c1cc(C#CC(C)(C)C)sc1C(=O)O)C(=O)[C@H]1CC[C@H](C)CC1` [Compound 85, 5-(3,3-Dimethylbut-1-ynyl)-3-[(trans-4-methylcyclohexanecarbonyl)-[(1S)-2-methyl-1-(morpholine-4-carbonyl)propyl]amino]thiophene-2-carboxylic acid], for which the CC50 at 72 h in data set [1] was 10 to 100 µM. For the same molecule, the IC50 in data set [2] is less than 0.1 µM.

`CC(C)[C@@H](C(=O)N(C)C)N(c1cc(C#CC(C)(C)C)sc1C(=O)O)C(=O)[C@H]1CC[C@H](C)CC1` [Compound 86, 5-(3,3-Dimethylbut-1-ynyl)-3-[[(1S)-1-(dimethylcarbamoyl)-2-methyl-propyl]-(trans-4-methylcyclohexanecarbonyl)amino]thiophene-2-carboxylic acid] yielded a CC50 at 72 h in data set [1] of 10 to 100 µM. For the same molecule, in data set [2], the IC50 was less than 0.1 µM.

`CCOC[C@@H](C(=O)N1CCOCC1)N(c1cc(C#CC(C)(C)C)sc1C(=O)O)C(=O)[C@H]1CC[C@H](C)CC1` [Compound 87, 5-(3,3-Dimethylbut-1-ynyl)-3-[[(1S)-1-(ethoxymethyl)-2-morpholino-2-oxo-ethyl]-(trans-4-methylcyclohexanecarbonyl)amino]thiophene-2-carboxylic acid] displayed a CC50 at 72 h in data set [1] greater than 100 µM. Also, the IC50 in data set [2] was less than 0.1 µM.

On to `CCOC[C@@H](C(=O)N(C)C)N(c1cc(C#CC(C)(C)C)sc1C(=O)O)C(=O)[C@H]1CC[C@H](C)CC1` [Compound 88, 3-[[(1S)-2-(Dimethylamino)-1-(ethoxymethyl)-2-oxo-ethyl]-(trans-4-methylcyclohexanecarbonyl)amino]-5-(3,3-dimethylbut-1-ynyl)thiophene-2-carboxylic acid], for which the CC50 at 72 h in data set [1] is greater than 100 µM. Further, the IC50 in data set [2] is less than 0.1 µM.

`CC[C@@H](C(=O)N(C)C)N(c1cc(C#CC(C)C)sc1C(=O)O)C(=O)[C@H]1CC[C@H](C)CC1` [Compound 89, 3-[[(1S)-1-(dimethylcarbamoyl)propyl]-(trans-4-methylcyclohexanecarbonyl)amino]-5-(3-methylbut-1-ynyl)thiophene-2-carboxylic acid] yielded a cytotoxic concentration (CC50) at 72 h in data set [1] greater than 100 µM. The IC50 in data set [2] is less than 0.1 µM.

On to `CC[C@@H](C(=O)N1CCOCC1)N(c1cc(C#CC(C)C)sc1C(=O)O)C(=O)[C@H]1CC[C@H](C)CC1` [Compound 90, 5-(3-Methylbut-1-ynyl)-3-[(trans-4-methylcyclohexanecarbonyl)-[(1S)-1-(morpholine-4-carbonyl)propyl]amino]thiophene-2-carboxylic acid], for which, in data set [1], the CC50 at 72 h is greater than 100 µM. Also, the IC50 in data set [2] was less than 0.1 µM.

As to `C[C@@H](CC(=O)N(C)C)N(c1cc(C#CC(C)(C)C)sc1C(=O)O)C(=O)[C@H]1CC[C@H](C)CC1` [Compound 96, 3-((trans)-N—((S)-4-(dimethylamino)-4-oxobutan-2-yl)-4-methylcyclohexanecarboxamido)-5-(3,3-dimethylbut-1-yn-1-yl)thiophene-2-carboxylic acid], the CC50 at 72 h in data set [1] is 10 to 100 µM. In data set [2], the IC50 is less than 0.1 µM.

Molecule `CC1CCC(C(=O)N(CCC(=O)N2CCOCC2)c2cc(C#CC(C)(C)C)sc2C(=O)O)CC1` (stereo not shown) [Compound 97] registered a half-maximal cytotoxic concentration (CC50) at 72 h in data set [1] greater than 100 µM. In addition, the IC50 in data set [2] was less than 0.1 µM.

Molecule `C[C@@H](CC(=O)N1CCOCC1)N(c1cc(C#CC(C)(C)C)sc1C(=O)O)C(=O)[C@H]1CC[C@H](C)CC1` [Compound 105, 5-(3,3-Dimethylbut-1-ynyl)-3-[(trans-4-methylcyclohexanecarbonyl)-[(1S)-1-methyl-3-morpholino-3-oxo-propyl]amino]thiophene-2-carboxylic acid] returned a 50% cytotoxic concentration (CC50) at 72 h in data set [1] greater than 100 µM. In addition, the IC50 in data set [2] is less than 0.1 µM.

Consider `C[C@H](CC(=O)N1CCOCC1)N(c1cc(C#CC(C)(C)C)sc1C(=O)O)C(=O)[C@H]1CC[C@H](C)CC1` [Compound 106, 5-(3,3-Dimethylbut-1-ynyl)-3-[(trans-4-methylcyclohexanecarbonyl)-[(1R)-1-methyl-3-morpholino-3-oxo-propyl]amino]thiophene-2-carboxylic acid], for which the CC50 at 72 h in data set [1] is greater than 100 µM. Besides, the IC50 in data set [2] is less than 0.1 µM.

For `C[C@H](CN(c1cc(C#CC(C)(C)C)sc1C(=O)O)C(=O)[C@H]1CC[C@H](C)CC1)C(=O)N1CCOCC1` [Compound 109, 5-(3,3-dimethylbut-1-ynyl)-3-[(trans-4-methylcyclohexanecarbonyl)-[(2R)-2-methyl-3-morpholino-3-oxo-propyl]amino]thiophene-2-carboxylic acid], the cytotoxic concentration (CC50) at 72 h in data set [1] was greater than 100 µM. For the same molecule, in data set [2], the IC50 is less than 0.1 µM.

Turning to `C[C@@H](CC(=O)N1CCN(C)CC1)N(c1cc(C#CC(C)(C)C)sc1C(=O)O)C(=O)[C@H]1CC[C@H](C)CC1` [Compound 110, 5-(3,3-Dimethylbut-1-ynyl)-3-[(trans-4-methylcyclohexanecarbonyl)-[(1S)-1-methyl-3-(4-methylpiperazin-1-yl)-3-oxo-propyl]amino]thiophene-2-carboxylic acid], in data set [1], the cytotoxic concentration (CC50) at 72 h is greater than 100 µM. In addition, in data set [2], the IC50 is less than 0.1 µM.

With `CCNC(=O)C[C@H](C)N(c1cc(C#CC(C)(C)C)sc1C(=O)O)C(=O)[C@H]1CC[C@H](C)CC1` [Compound 111, 5-(3,3-Dimethylbut-1-ynyl)-3-[[(1S)-3-(ethylamino)-1-methyl-3-oxo-propyl]-(trans-4-methylcyclohexanecarbonyl)amino]thiophene-2-carboxylic acid], the CC50 at 72 h in data set [1] is greater than 100 µM. Also, the IC50 in data set [2] is less than 0.1 µM.

`C[C@@H](CC(=O)N(C)C1CCN(C)CC1)N(c1cc(C#CC(C)(C)C)sc1C(=O)O)C(=O)[C@H]1CC[C@H](C)CC1` [Compound 113, 5-(3,3-Dimethylbut-1-ynyl)-3-[(trans-4-methylcyclohexanecarbonyl)-[(1S)-1-methyl-3-[methyl-(1-methyl-4-piperidyl)amino]-3-oxo-propyl]amino]thiophene-2-carboxylic acid] had a CC50 at 72 h in data set [1] greater than 100 µM. Moreover, in data set [2], the IC50 was less than 0.1 µM.

Consider `COCCN(C)C(=O)C[C@H](C)N(c1cc(C#CC(C)(C)C)sc1C(=O)O)C(=O)[C@H]1CC[C@H](C)CC1` [Compound 114, 5-(3,3-Dimethylbut-1-ynyl)-3-[[(1S)-3-[2-methoxyethyl(methyl)amino]-1-methyl-3-oxo-propyl]-(trans-4-methylcyclohexanecarbonyl)amino]thiophene-2-carboxylic acid], for which, in data set [1], the CC50 at 72 h is greater than 100 µM. In addition, in data set [2], the IC50 is less than 0.1 µM.

In data set [1], `COC1CCN(C(=O)C[C@H](C)N(c2cc(C#CC(C)(C)C)sc2C(=O)O)C(=O)[C@H]2CC[C@H](C)CC2)CC1` [Compound 115, 5-(3,3-Dimethylbut-1-ynyl)-3-[[(1S)-3-(4-methoxy-1-piperidyl)-1-methyl-3-oxo-propyl]-(trans-4-methylcyclohexanecarbonyl)amino]thiophene-2-carboxylic acid] came in with a CC50 at 72 h greater than 100 µM. For the same molecule, the IC50 in data set [2] is less than 0.1 µM.
